Test results taken from patent publication EP4745135A1 (Gluetacs Therapeutics (Shanghai) Co., Ltd., priority 2023, dated 2025).

Assays:
CK1α = target: T1, CK1α (Homo sapiens, UniProt P48729+Q96SW2); assay: Western blot, degradation of substrate protein in hPBMCs; type: cell-based
T1 construct: effects of the compounds of the present disclosure on the expression of target proteins in cells; endogenous in cells; host or cells: human PBMCs (Milecell Biotechnologies)

IKZF1 = target: T2, IKZF1 (Homo sapiens, UniProt Q13422+Q96SW2); assay: as above; type: cell-based
T2 construct: effects of the compounds of the present disclosure on the expression of target proteins in cells; endogenous in cells; host or cells: human PBMCs (Milecell Biotechnologies)
T2 sequence (Q13422 whole entry): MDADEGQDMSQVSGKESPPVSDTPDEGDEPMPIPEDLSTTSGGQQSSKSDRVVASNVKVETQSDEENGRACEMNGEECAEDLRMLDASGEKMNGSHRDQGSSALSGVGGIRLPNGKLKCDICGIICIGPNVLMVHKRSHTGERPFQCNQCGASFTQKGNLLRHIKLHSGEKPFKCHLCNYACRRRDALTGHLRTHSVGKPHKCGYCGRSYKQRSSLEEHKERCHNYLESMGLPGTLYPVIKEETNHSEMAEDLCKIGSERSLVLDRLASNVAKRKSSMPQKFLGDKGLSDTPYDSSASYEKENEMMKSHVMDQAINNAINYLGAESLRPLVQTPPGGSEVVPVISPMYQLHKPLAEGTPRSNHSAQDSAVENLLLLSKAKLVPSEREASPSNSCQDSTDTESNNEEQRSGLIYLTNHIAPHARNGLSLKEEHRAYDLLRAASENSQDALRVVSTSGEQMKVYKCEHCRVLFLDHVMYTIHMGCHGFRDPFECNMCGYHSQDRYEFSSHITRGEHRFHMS
T2 sequence (Q96SW2 whole entry): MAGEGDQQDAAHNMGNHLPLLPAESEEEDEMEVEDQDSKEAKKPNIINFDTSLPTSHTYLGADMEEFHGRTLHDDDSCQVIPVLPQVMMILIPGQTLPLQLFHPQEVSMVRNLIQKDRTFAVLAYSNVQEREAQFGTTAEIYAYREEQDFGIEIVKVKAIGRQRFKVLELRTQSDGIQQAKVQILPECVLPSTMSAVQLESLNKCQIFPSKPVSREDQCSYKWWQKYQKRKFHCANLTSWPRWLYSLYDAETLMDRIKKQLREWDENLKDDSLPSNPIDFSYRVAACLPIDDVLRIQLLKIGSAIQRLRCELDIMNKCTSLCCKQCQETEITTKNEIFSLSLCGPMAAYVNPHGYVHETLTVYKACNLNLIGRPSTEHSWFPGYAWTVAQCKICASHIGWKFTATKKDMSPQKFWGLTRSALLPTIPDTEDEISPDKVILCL
T2 sequence (Q16531 whole entry partner): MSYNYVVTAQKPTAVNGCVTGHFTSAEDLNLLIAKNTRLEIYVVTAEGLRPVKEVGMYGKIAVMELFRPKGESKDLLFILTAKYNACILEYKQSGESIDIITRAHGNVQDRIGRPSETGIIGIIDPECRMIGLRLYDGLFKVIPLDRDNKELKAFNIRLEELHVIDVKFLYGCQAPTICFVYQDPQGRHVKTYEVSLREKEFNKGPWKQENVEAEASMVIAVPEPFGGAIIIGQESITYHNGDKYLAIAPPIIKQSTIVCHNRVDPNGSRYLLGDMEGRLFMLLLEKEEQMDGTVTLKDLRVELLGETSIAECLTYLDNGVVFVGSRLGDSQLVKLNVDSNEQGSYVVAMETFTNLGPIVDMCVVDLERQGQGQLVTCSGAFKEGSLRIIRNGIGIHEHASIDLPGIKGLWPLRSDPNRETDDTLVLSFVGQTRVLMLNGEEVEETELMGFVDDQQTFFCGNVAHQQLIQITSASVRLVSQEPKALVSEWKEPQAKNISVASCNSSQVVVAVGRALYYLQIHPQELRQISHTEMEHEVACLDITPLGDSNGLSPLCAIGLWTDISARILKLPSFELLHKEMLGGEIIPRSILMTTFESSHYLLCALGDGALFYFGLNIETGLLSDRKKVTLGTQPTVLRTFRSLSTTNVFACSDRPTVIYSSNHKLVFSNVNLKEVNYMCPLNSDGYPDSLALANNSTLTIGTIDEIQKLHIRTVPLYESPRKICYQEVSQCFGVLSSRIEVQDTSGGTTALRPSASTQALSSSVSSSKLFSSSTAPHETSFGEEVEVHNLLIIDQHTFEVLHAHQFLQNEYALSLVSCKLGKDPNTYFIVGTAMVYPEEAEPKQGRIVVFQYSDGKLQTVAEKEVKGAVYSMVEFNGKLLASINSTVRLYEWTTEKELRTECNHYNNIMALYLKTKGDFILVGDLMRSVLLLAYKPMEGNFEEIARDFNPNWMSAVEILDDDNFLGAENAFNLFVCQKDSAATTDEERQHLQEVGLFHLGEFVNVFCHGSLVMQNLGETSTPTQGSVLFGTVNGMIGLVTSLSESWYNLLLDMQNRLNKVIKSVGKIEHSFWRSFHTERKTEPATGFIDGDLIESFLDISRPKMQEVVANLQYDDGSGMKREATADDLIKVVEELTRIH

IKZF2 = target: T3, IKZF2 (Homo sapiens, UniProt Q96SW2+Q9UKS7); assay: as above; type: cell-based
T3 construct: effects of the compounds of the present disclosure on the expression of target proteins in cells; endogenous in cells; host or cells: human PBMCs (Milecell Biotechnologies)
T3 sequence (Q9UKS7 whole entry): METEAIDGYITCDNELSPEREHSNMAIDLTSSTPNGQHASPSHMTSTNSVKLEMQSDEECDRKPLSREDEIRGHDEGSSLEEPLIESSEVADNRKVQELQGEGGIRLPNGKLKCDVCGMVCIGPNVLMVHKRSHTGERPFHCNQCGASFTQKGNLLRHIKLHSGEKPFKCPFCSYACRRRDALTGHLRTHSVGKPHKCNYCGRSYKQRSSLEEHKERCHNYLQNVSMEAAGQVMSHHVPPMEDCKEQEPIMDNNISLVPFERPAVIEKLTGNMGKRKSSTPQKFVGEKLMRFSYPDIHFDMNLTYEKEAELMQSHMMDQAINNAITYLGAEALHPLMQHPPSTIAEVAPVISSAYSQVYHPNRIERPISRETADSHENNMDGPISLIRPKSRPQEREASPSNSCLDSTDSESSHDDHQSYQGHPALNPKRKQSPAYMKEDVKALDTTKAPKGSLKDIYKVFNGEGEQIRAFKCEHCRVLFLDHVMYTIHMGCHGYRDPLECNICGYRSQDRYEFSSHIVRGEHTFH
T3 sequence (Q96SW2 whole entry): as the sequence (Q96SW2 whole entry) above
T3 sequence (Q16531 whole entry partner): as the sequence (Q16531 whole entry partner) above

IKZF3 = target: T4, IKZF3 (Homo sapiens, UniProt Q96SW2+Q9UKT9); assay: as above; type: cell-based
T4 construct: effects of the compounds of the present disclosure on the expression of target proteins in cells; endogenous in cells; host or cells: human PBMCs (Milecell Biotechnologies)
T4 sequence (Q9UKT9 whole entry): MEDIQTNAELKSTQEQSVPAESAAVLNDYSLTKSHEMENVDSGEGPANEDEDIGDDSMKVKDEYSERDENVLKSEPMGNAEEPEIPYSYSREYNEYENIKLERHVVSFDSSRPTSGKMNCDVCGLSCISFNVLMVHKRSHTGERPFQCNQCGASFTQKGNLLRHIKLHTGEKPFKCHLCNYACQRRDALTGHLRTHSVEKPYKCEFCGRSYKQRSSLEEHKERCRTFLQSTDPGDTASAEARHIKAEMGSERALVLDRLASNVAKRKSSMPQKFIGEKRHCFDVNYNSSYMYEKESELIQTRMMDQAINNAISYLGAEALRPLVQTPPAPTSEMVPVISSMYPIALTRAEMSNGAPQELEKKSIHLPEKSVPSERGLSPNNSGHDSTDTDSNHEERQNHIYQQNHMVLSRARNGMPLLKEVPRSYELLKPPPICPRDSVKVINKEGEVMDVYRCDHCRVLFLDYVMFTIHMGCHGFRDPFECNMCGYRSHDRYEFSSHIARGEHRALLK
T4 sequence (Q96SW2 whole entry): as the sequence (Q96SW2 whole entry) above
T4 sequence (Q16531 whole entry partner): as the sequence (Q16531 whole entry partner) above

WEE1 = target: T5, WEE1 (Homo sapiens, UniProt P30291+Q96SW2); assay: as above; type: cell-based
T5 construct: effects of the compounds of the present disclosure on the expression of target proteins in cells; endogenous in cells; host or cells: human PBMCs (Milecell Biotechnologies)
T5 sequence (P30291 whole entry): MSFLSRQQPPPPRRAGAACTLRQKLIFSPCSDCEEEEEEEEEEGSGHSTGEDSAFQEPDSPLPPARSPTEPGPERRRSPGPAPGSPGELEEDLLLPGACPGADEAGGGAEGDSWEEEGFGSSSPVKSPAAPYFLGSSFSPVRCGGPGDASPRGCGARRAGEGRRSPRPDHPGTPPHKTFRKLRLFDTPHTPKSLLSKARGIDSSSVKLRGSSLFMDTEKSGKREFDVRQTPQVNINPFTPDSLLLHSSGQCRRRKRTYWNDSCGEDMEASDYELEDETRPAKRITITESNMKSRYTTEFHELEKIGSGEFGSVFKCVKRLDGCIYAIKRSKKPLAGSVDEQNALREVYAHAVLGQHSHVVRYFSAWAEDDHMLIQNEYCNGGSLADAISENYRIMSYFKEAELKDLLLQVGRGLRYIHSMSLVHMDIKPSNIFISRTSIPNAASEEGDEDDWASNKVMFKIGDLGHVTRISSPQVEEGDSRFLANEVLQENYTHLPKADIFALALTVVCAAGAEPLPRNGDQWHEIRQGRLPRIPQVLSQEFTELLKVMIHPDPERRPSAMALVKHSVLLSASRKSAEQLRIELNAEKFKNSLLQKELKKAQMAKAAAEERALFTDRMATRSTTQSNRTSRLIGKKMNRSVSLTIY
T5 sequence (Q96SW2 whole entry): as the sequence (Q96SW2 whole entry) above
T5 sequence (Q16531 whole entry partner): as the sequence (Q16531 whole entry partner) above

GSPT1 = assay: as above; type: cell-based, Human
[1] = target: T6, human Cereblon WT GST-tagged protein (Homo sapiens, UniProt Q96SW2); assay: CRBN-binding affinity, HTRF (CEREBLON BINDING kit); details: for inhibition at 0.5 µM: read-out: Inhibition Rate at 0.5 µM (%); for inhibition at 2 µM: read-out: Inhibition Rate at 2 µM (%)
T6 construct: purchased CISBIO 64BDCRBNPEH
T6 sequence (Q96SW2 whole entry): as the sequence (Q96SW2 whole entry) above

[2] = Western blot, 24 hours of compound treatment, compounds tested at 50 nM and 500 nM (concentration for the table not stated)
[3] = 24 hours treatment, compounds at 50 nM and 500 nM (concentration behind the class not stated)

T1 sequence (P48729 whole entry): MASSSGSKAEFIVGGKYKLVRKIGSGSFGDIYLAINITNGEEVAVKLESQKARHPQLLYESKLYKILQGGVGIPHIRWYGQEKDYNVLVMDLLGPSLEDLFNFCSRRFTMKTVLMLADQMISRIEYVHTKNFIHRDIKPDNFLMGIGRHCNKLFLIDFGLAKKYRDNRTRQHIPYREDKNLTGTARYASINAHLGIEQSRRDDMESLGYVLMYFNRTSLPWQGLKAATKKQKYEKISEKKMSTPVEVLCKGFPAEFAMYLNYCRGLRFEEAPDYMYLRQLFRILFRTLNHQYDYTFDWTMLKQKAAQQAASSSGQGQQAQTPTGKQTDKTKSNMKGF
T1 sequence (Q96SW2 whole entry): as the sequence (Q96SW2 whole entry) above
T1 sequence (Q16531 whole entry partner): as the sequence (Q16531 whole entry partner) above

SMILES | CK1α substrate protein remaining % (CK1α; [2]) | IKZF 1 substrate protein remaining % (IKZF1; [2]) | IKZF2 substrate protein remaining % (IKZF2; [2]) | IKZF3 substrate protein remaining % (IKZF3; [2]) | Wee1 substrate protein remaining % (WEE1; [2]) | GSPT1 substrate protein remaining % (GSPT1; [2]) | inhibition at 0.5 µM [1] [%] | inhibition at 2 µM [1] [%] | CK1α substrate protein remaining % (CK1α; [3]) | IKZF 1 substrate protein remaining % (IKZF1; [3]) | IKZF2 substrate protein remaining % (IKZF2; [3]) | IKZF3 substrate protein remaining % (IKZF3; [3]) | Wee1 substrate protein remaining % (WEE1; [3]) | GSPT1 substrate protein remaining % (GSPT1; [3])
O=C1CCC(N2Cc3c(CN4CCC(c5cccc(Br)c5)CC4)cccc3C2=S)C(=O)N1 (stereo not drawn) [GT-08507, 3-(4-((4-(3-bromophenyl)piperidin-1-yl)methyl)-1-thioxoisoindolin-2-yl)piperidine-2,6-dione] | B (80%< substrate protein remaining %≤ 100%) | B (80%< substrate protein remaining %≤ 100%) | B (80%< substrate protein remaining %≤ 100%) | A (0% ≤ substrate protein remaining % ≤ 80%) | A (0% ≤ substrate protein remaining % ≤ 80%) | B (80%< substrate protein remaining %≤ 100%) | 40 to 53 | 60 to 80 | – | – | – | – | – | –
O=C1CCC(N2Cc3c(CN4CCC(c5ccsc5)CC4)cccc3C2=S)C(=O)N1 (stereo not drawn) [GT-08315, 3-(4-((4-(thiophen-3-yl)piperidin-1-yl)methyl)-1-thioxoisoindolin-2-yl)piperidine-2,6-dione] | – | – | – | – | – | – | 40 to 53 | 60 to 80 | B (80%< substrate protein remaining %≤ 100%) | B (80%< substrate protein remaining %≤ 100%) | B (80%< substrate protein remaining %≤ 100%) | B (80%< substrate protein remaining %≤ 100%) | A (0% ≤ substrate protein remaining % ≤ 80%) | B (80%< substrate protein remaining %≤ 100%)
O=C1CCC(N2Cc3cc(CN4CCN(c5ncccc5C(F)(F)F)CC4)ccc3C2=S)C(=O)N1 (stereo not drawn) [GT-09223, 3-(1-thioxo-5-((4-(3-(trifluoromethyl)pyridin-2-yl)piperazin-1-yl)methyl)isoindolin-2-yl)piperidine-2,6-dione] | A (0% ≤ substrate protein remaining % ≤ 80%) | B (80%< substrate protein remaining %≤ 100%) | B (80%< substrate protein remaining %≤ 100%) | B (80%< substrate protein remaining %≤ 100%) | A (0% ≤ substrate protein remaining % ≤ 80%) | B (80%< substrate protein remaining %≤ 100%) | 60 to 80 | 80 to 100 | – | – | – | – | – | –
O=C1CCC(N2Cc3cc(CN4CCN(c5nccc(F)c5F)CC4)ccc3C2=S)C(=O)N1 (stereo not drawn) [GT-09235, 3-(5-((4-(3,4-difluoropyridin-2-yl)piperazin-1-yl)methyl)-1-thioxoisoindolin-2-yl)piperidine-2,6-dione] | A (0% ≤ substrate protein remaining % ≤ 80%) | B (80%< substrate protein remaining %≤ 100%) | A (0% ≤ substrate protein remaining % ≤ 80%) | A (0% ≤ substrate protein remaining % ≤ 80%) | B (80%< substrate protein remaining %≤ 100%) | A (0% ≤ substrate protein remaining % ≤ 80%) | 60 to 80 | 80 to 100 | – | – | – | – | – | –
O=C1CCC(N2Cc3c(CN4CCN(c5cc(F)ccc5F)CC4)cccc3C2=S)C(=O)N1 (stereo not drawn) [GT-08593, 3-(4-((4-(2,5-difluorophenyl)piperazin-1-yl)methyl)-1-thioxoisoindolin-2-yl)piperidine-2,6-dione] | B (80%< substrate protein remaining %≤ 100%) | B (80%< substrate protein remaining %≤ 100%) | B (80%< substrate protein remaining %≤ 100%) | B (80%< substrate protein remaining %≤ 100%) | A (0% ≤ substrate protein remaining % ≤ 80%) | B (80%< substrate protein remaining %≤ 100%) | 40 to 53 | 60 to 80 | – | – | – | – | – | –
Cc1ccc(C2CCN(Cc3cccc4c3CN(C3CCC(=O)NC3=O)C4=S)CC2)s1 (stereo not drawn) [GT-08312, 3-(4-((4-(5-methylthiophen-2-yl)piperidin-1-yl)methyl)-1-thioxoisoindolin-2-yl)piperidine-2,6-dione] | – | – | – | – | – | – | 53 to 60 | 80 to 100 | B (80%< substrate protein remaining %≤ 100%) | B (80%< substrate protein remaining %≤ 100%) | B (80%< substrate protein remaining %≤ 100%) | B (80%< substrate protein remaining %≤ 100%) | A (0% ≤ substrate protein remaining % ≤ 80%) | B (80%< substrate protein remaining %≤ 100%)
O=C1CCC(N2Cc3c(CN4CCC(c5n[nH]c6cc(F)ccc56)CC4)cccc3C2=S)C(=O)N1 (stereo not drawn) [GT-08849, 3-(4-((4-(6-fluoro-1H-indazol-3-yl)piperidin-1-yl)methyl)-1-thioxoisoindolin-2-yl)piperidine-2,6-dione] | B (80%< substrate protein remaining %≤ 100%) | B (80%< substrate protein remaining %≤ 100%) | B (80%< substrate protein remaining %≤ 100%) | B (80%< substrate protein remaining %≤ 100%) | A (0% ≤ substrate protein remaining % ≤ 80%) | A (0% ≤ substrate protein remaining % ≤ 80%) | 60 to 80 | 80 to 100 | – | – | – | – | – | –
O=C1CCC(N2Cc3cc(CN4CCN(c5nsc6cc(F)ccc56)CC4)ccc3C2=S)C(=O)N1 (stereo not drawn) [GT-09259, 3-(5-((4-(6-fluorobenzo[d]isothiazol-3-yl)piperazin-1-yl)methyl)-1-thioxoisoindolin-2-yl)piperidine-2,6-dione] | – | – | – | – | – | – | 53 to 60 | 80 to 100 | B (80%< substrate protein remaining %≤ 100%) | B (80%< substrate protein remaining %≤ 100%) | B (80%< substrate protein remaining %≤ 100%) | B (80%< substrate protein remaining %≤ 100%) | B (80%< substrate protein remaining %≤ 100%) | A (0% ≤ substrate protein remaining % ≤ 80%)
O=C1CCC(N2Cc3c(CN4CCN(c5ncnc6sccc56)CC4)cccc3C2=S)C(=O)N1 (stereo not drawn) [GT-08912, 3-(4-((4-(thieno[2,3-d]pyrimidin-4-yl)piperazin-1-yl)methyl)-1-thioxoisoindolin-2-yl)piperidine-2,6-dione] | – | – | – | – | – | – | 60 to 80 | 80 to 100 | B (80%< substrate protein remaining %≤ 100%) | B (80%< substrate protein remaining %≤ 100%) | B (80%< substrate protein remaining %≤ 100%) | B (80%< substrate protein remaining %≤ 100%) | A (0% ≤ substrate protein remaining % ≤ 80%) | B (80%< substrate protein remaining %≤ 100%)
Cc1nc(C2=CCN(Cc3cccc4c3CN(C3CCC(=O)NC3=O)C4=S)CC2)c2c3c(sc2n1)CCCC3 (stereo not drawn) [GT-08961, 3-(4-((4-(2-methyl-5,6,7,8-tetrahydrobenzo[4,5]thieno[2,3-d]pyrimidin-4-yl)-3,6-dihydropyridin-1(2H)-yl)methyl)-1-thioxoisoindolin-2-yl)piperidine-2,6-dione] | – | – | – | – | – | – | 40 to 53 | 80 to 100 | B (80%< substrate protein remaining %≤ 100%) | B (80%< substrate protein remaining %≤ 100%) | B (80%< substrate protein remaining %≤ 100%) | B (80%< substrate protein remaining %≤ 100%) | A (0% ≤ substrate protein remaining % ≤ 80%) | B (80%< substrate protein remaining %≤ 100%)
O=C1CCC(N2Cc3c(CN4CC=C(c5ccco5)CC4)cccc3C2=S)C(=O)N1 (stereo not drawn) [GT-08311, 3-(4-((4-(furan-2-yl)-3,6-dihydropyridin-1 (2H)-yl)methyl)-1-thioxoisoindolin-2-yl)piperidine-2,6-dione] | – | – | – | – | – | – | 60 to 80 | 80 to 100 | B (80%< substrate protein remaining %≤ 100%) | B (80%< substrate protein remaining %≤ 100%) | B (80%< substrate protein remaining %≤ 100%) | B (80%< substrate protein remaining %≤ 100%) | A (0% ≤ substrate protein remaining % ≤ 80%) | B (80%< substrate protein remaining %≤ 100%)
O=C1CCC(N2Cc3cc(CN4CCN(c5ccc(F)cn5)CC4)ccc3C2=S)C(=O)N1 (stereo not drawn) [GT-09222, 3-(5-((4-(5-fluoropyridin-2-yl)piperazin-1-yl)methyl)-1-thioxoisoindolin-2-yl)piperidine-2,6-dione] | B (80%< substrate protein remaining %≤ 100%) | A (0% ≤ substrate protein remaining % ≤ 80%) | B (80%< substrate protein remaining %≤ 100%) | B (80%< substrate protein remaining %≤ 100%) | A (0% ≤ substrate protein remaining % ≤ 80%) | B (80%< substrate protein remaining %≤ 100%) | 60 to 80 | 80 to 100 | – | – | – | – | – | –
